Among the data in publication PMC4029803, “Glutathione-Binding Site of a Bombyx mori Theta-Class Glutathione Transferase” (PLoS ONE, 2014) are Km values, retold here.

Numbering of substitutions follows the chain as printed. Numbers in names are those of the source.

Series [1] has as its target T1, bmGSTT (Bombyx mori, UniProt B0LB14, E66A).
T1 construct: cDNA from larval fat body; primers encode N-terminal MVLKLYYD and C-terminal AANSKL
T1 sequence (B0LB14 1-229 E66A): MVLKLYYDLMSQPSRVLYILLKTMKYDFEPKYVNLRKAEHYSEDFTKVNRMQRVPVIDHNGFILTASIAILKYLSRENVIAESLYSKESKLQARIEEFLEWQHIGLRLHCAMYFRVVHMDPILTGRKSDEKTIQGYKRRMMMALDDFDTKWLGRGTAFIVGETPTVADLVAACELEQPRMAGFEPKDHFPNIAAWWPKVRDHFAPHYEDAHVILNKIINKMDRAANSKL
Nature of the series: spectrophotometric GST assay, […] nm. The class given is biochemical. The following applies: 5 mM GSH; read-out: bmGSTT mutants / E66A.

Series [2] addresses T2, bmGSTT (Bombyx mori, UniProt B0LB14, R107A).
T2 construct: cDNA from larval fat body; primers encode N-terminal MVLKLYYD and C-terminal AANSKL
T2 sequence (B0LB14 1-229 R107A): T1 sequence (B0LB14 1-229 E66A) with A66E, R107A
Nature of the series: spectrophotometric GST assay, […] nm. The class given is biochemical. Conditions: 5 mM GSH; read-out: bmGSTT mutants / R107A.

Series [3] has as its target T3, bmGSTT (Bombyx mori, UniProt B0LB14, H40A).
T3 construct: cDNA from larval fat body; primers encode N-terminal MVLKLYYD and C-terminal AANSKL
T3 sequence (B0LB14 1-229 H40A): T1 sequence (B0LB14 1-229 E66A) with H40A, A66E
Nature of the series: spectrophotometric GST assay, […] nm. The class given is biochemical. Conditions: 5 mM GSH; read-out: bmGSTT mutants / H40A.

For series [4], the target named is T4, bmGSTT (Bombyx mori, UniProt B0LB14).
T4 construct: cDNA from larval fat body; primers encode N-terminal MVLKLYYD and C-terminal AANSKL
T4 sequence (B0LB14 1-229): T1 sequence (B0LB14 1-229 E66A) with A66E
Nature of the series: spectrophotometric GST assay, […] nm. The class given is biochemical. Conditions: 5 mM GSH; Table 1 activity at pH 8; read-out: WT.

Substrate in the series “purified protein”: O=[N+]([O-])c1ccc(CCBr)cc1
Nature of the series: purified protein. The following applies: 5 mM GSH.

As for `O=[N+]([O-])c1ccc(Cl)c([N+](=O)[O-])c1` [CDNB, 1-chloro-2,4-dinitrobenzene], the Km at bmGSTT [1] came to 12000 µM; at bmGSTT [2], 960 µM; at bmGSTT [3], 520 µM; on bmGSTT [4], 1500 µM.

B1: bmGSTT (Bombyx mori; H40A) (protein)
chain: T1 sequence (B0LB14 1-229 E66A) with H40A, A66E
Regarding B1, in the series “purified protein”, the Km is 2.3 (0.22) mM.

B2: bmGSTT (Bombyx mori; V54A) (protein)
chain: T1 sequence (B0LB14 1-229 E66A) with V54A, A66E
In the case of B2, the Km in the series “purified protein” is 0.50 (0.083) mM.

B3: bmGSTT (Bombyx mori) (protein)
chain: T1 sequence (B0LB14 1-229 E66A) with A66E
B3: the Km in “purified protein” (Table 1 activity at pH 8) is listed as 0.13 (0.03) mM.

B4: bmGSTT (Bombyx mori; R107A) (protein)
chain: T1 sequence (B0LB14 1-229 E66A) with A66E, R107A
As for B4, the Km in “purified protein” was 0.52 (0.071) mM.
